The source of these data is PubChem BioAssay (NCI).

Structures are written as SMILES.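 Where inhibition never reached the appropriate level, the endpoint shown equals the highest concentration tested. Otherwise, values were interpolated linearly from a five-concentration, 48-hour dose response in 96-well plates. TGI is the concentration that stops growth completely.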

Experiment in all cases: NCI anticancer screen, dose series, 48 h
For assay [1], the system named is NCI-H226 lung.
Assay [2] relates to DU-145 prostate.
In assay [3] the test system is SNB-19 CNS.
The test system of assay [4] is M14 melanoma.
Assay [5] relates to LOX IMVI melanoma.
Assay [6] deals with MDA-MB-231 breast.
The subject of assay [7] is 786-0 renal.
The test system of assay [8] is OVCAR-3 ovarian.
The test system of assay [9] is MDA-N.
The subject of assay [10] is SW-620 colon.
In assay [11] the test system is UO-31 renal.
The test system of assay [12] is KM12 colon.
The subject of assay [13] is RXF 393 renal.
The test system of assay [14] is HT29 colon.
For assay [15], the system named is NCI-H522 lung.
In assay [16] the test system is HCT-116 colon.
In assay [17] the test system is HOP-62 NSCLC.
The subject of assay [18] is UACC-62 melanoma.
For assay [19], the system named is TK-10 renal.

Turning to `CNC(=O)C1CCCN1C(=O)C(Cc1cnc[nH]1)NC(=O)C1CCC(=O)N1` (centres undefined), the TGI in assay [1], in assay [2], in assay [3], in assay [4], in assay [5] and in assay [6] was > 100 µM in each case. The TGI in [7], in assay [8], in assay [9], in assay [10], in assay [11] and in [12] was > 100 µM throughout. Besides, the TGI in assay [13], in assay [14], in assay [15], in assay [16], in assay [17] and in assay [18] was > 100 µM each time. Also, the TGI in [19] was > 100 µM.

Regarding `C[C@@H](CO)C1=CC(C#C[Si](C)(C)C)N(C(=O)Oc2ccccc2)c2ccccc21` (some centres undefined), the TGI worked out at 44 µM in [1]; 48.1 µM in assay [2]; 82 µM in assay [3]; 35.6 µM in [4]; 32.4 µM in assay [5]; 37.8 µM in assay [6]. For the same compound, the TGI in [7] is 31.8 µM; in [8], 26.9 µM; in assay [9], 23.7 µM; in assay [10], > 100 µM; in [11] it was 30.4 µM; in assay [12] it was 34.1 µM. Further, the TGI was 20 µM in assay [13]; 35.2 µM in assay [14]; 33.9 µM in assay [15]; 29 µM in [16]; 30 µM in [17]; 21.9 µM in assay [18]. This compound also displayed a TGI in [19] of 79.5 µM.

On to `COC(=O)C(Cc1c(C2Nc3ccccc3C2CC(NC(C)=O)C(=O)OC)[nH]c2ccccc12)NC(C)=O` (centres undefined), for which the TGI in assay [1], in [2], in assay [3], in [4], in assay [5] and in [6] was > 100 µM in each case. The TGI in assay [7], in assay [8], in assay [9], in assay [10], in [11] and in assay [12] was > 100 µM each time. Also, the TGI in assay [13], in assay [14], in assay [15], in assay [16], in [17] and in [18] was > 100 µM in each case. Also, in assay [19], the TGI is > 100 µM.

Consider `CCC1c2[nH]c3ccccc3c2C[C@H]2C(=O)NC(CCCCNC(=O)OC(C)(C)C)C(=O)N12` (some centres undefined), for which the TGI in [1] is > 100 µM; in assay [2], > 100 µM; in assay [3] it was > 100 µM; in [4] it was 40.9 µM; in [5], 54.7 µM; in [6] it was 99.4 µM. The TGI in assay [7] is 81.3 µM; in assay [8], 63.4 µM; in assay [9] it was 54.9 µM; in assay [10], > 100 µM; in assay [11], > 100 µM; in assay [12], 44.7 µM. Moreover, the TGI in assay [13] is > 100 µM; in assay [14], 99.3 µM; in assay [15] it was 50.9 µM; in assay [16], 94.4 µM; in assay [17] it was > 100 µM; in [18], 49.2 µM. Further, the TGI in [19] was > 100 µM.

Turning to `CCOC(=O)N1CCN(c2nc(C)n(-c3ccccc3)c(=S)c2C#N)CC1`, the TGI in assay [1] was > 100 µM; in [2] it was > 100 µM; in assay [3] it was > 100 µM; in [4] it was > 100 µM; in assay [5] it was > 100 µM; in assay [6] it was > 84.3 µM. Further, the TGI was > 100 µM in assay [7]; > 100 µM in assay [8]; > 72.2 µM in assay [9]; > 100 µM in assay [10]; > 100 µM in [11]; > 100 µM in assay [12]. The TGI was > 100 µM in assay [13]; > 100 µM in [14]; > 66.3 µM in [15]; > 100 µM in assay [16]; > 100 µM in assay [17]; > 100 µM in [18]. For the same compound, in [19], the TGI was > 100 µM.

On to `COC(=O)c1cnn2c1ccc1ccccc12`, for which the TGI in [1], in assay [2], in assay [3], in [4], in [5] and in assay [6] was > 100 µM each time. Besides, the TGI in [7], in assay [8], in [9], in [10], in assay [11] and in assay [12] was > 100 µM in each case. Further, the TGI in assay [13], in assay [14], in assay [15], in assay [16], in [17] and in assay [18] was > 100 µM in each case. Moreover, in assay [19], the TGI was > 100 µM.
